How the values were obtained:
[1] = target: T1, RNF213 (mouse, full-length) (Mus musculus, UniProt E9Q555); test: cryo-EM structure; format: binding; settings: co-purified ATP, Mg; bound to catalytically inactive AAA2, contacts from AAA3
T1 construct: full length, 5148 residues, 584 kDa, C-terminal Gly3-His10 tag kept; codon-optimised, High Five insect cells; monomer; modelled residues 476-5148

[2] = target: T2, RNF213 (mouse, full-length) (Mus musculus, UniProt E9Q555, R4753K); test: NADH-coupled ATPase assay; format: biochemical; settings: 2 mM ATP, equimolar MgCl2 added, pH 7.2, 30 C; Moyamoya founder mutant (human R4810K); rate only in figure
T2 construct: full length, 5148 residues, 584 kDa, C-terminal Gly3-His10 tag kept; codon-optimised, High Five insect cells; monomer; modelled residues 476-5148
T2 sequence (E9Q555 whole entry R4753K, the tested form may be a part): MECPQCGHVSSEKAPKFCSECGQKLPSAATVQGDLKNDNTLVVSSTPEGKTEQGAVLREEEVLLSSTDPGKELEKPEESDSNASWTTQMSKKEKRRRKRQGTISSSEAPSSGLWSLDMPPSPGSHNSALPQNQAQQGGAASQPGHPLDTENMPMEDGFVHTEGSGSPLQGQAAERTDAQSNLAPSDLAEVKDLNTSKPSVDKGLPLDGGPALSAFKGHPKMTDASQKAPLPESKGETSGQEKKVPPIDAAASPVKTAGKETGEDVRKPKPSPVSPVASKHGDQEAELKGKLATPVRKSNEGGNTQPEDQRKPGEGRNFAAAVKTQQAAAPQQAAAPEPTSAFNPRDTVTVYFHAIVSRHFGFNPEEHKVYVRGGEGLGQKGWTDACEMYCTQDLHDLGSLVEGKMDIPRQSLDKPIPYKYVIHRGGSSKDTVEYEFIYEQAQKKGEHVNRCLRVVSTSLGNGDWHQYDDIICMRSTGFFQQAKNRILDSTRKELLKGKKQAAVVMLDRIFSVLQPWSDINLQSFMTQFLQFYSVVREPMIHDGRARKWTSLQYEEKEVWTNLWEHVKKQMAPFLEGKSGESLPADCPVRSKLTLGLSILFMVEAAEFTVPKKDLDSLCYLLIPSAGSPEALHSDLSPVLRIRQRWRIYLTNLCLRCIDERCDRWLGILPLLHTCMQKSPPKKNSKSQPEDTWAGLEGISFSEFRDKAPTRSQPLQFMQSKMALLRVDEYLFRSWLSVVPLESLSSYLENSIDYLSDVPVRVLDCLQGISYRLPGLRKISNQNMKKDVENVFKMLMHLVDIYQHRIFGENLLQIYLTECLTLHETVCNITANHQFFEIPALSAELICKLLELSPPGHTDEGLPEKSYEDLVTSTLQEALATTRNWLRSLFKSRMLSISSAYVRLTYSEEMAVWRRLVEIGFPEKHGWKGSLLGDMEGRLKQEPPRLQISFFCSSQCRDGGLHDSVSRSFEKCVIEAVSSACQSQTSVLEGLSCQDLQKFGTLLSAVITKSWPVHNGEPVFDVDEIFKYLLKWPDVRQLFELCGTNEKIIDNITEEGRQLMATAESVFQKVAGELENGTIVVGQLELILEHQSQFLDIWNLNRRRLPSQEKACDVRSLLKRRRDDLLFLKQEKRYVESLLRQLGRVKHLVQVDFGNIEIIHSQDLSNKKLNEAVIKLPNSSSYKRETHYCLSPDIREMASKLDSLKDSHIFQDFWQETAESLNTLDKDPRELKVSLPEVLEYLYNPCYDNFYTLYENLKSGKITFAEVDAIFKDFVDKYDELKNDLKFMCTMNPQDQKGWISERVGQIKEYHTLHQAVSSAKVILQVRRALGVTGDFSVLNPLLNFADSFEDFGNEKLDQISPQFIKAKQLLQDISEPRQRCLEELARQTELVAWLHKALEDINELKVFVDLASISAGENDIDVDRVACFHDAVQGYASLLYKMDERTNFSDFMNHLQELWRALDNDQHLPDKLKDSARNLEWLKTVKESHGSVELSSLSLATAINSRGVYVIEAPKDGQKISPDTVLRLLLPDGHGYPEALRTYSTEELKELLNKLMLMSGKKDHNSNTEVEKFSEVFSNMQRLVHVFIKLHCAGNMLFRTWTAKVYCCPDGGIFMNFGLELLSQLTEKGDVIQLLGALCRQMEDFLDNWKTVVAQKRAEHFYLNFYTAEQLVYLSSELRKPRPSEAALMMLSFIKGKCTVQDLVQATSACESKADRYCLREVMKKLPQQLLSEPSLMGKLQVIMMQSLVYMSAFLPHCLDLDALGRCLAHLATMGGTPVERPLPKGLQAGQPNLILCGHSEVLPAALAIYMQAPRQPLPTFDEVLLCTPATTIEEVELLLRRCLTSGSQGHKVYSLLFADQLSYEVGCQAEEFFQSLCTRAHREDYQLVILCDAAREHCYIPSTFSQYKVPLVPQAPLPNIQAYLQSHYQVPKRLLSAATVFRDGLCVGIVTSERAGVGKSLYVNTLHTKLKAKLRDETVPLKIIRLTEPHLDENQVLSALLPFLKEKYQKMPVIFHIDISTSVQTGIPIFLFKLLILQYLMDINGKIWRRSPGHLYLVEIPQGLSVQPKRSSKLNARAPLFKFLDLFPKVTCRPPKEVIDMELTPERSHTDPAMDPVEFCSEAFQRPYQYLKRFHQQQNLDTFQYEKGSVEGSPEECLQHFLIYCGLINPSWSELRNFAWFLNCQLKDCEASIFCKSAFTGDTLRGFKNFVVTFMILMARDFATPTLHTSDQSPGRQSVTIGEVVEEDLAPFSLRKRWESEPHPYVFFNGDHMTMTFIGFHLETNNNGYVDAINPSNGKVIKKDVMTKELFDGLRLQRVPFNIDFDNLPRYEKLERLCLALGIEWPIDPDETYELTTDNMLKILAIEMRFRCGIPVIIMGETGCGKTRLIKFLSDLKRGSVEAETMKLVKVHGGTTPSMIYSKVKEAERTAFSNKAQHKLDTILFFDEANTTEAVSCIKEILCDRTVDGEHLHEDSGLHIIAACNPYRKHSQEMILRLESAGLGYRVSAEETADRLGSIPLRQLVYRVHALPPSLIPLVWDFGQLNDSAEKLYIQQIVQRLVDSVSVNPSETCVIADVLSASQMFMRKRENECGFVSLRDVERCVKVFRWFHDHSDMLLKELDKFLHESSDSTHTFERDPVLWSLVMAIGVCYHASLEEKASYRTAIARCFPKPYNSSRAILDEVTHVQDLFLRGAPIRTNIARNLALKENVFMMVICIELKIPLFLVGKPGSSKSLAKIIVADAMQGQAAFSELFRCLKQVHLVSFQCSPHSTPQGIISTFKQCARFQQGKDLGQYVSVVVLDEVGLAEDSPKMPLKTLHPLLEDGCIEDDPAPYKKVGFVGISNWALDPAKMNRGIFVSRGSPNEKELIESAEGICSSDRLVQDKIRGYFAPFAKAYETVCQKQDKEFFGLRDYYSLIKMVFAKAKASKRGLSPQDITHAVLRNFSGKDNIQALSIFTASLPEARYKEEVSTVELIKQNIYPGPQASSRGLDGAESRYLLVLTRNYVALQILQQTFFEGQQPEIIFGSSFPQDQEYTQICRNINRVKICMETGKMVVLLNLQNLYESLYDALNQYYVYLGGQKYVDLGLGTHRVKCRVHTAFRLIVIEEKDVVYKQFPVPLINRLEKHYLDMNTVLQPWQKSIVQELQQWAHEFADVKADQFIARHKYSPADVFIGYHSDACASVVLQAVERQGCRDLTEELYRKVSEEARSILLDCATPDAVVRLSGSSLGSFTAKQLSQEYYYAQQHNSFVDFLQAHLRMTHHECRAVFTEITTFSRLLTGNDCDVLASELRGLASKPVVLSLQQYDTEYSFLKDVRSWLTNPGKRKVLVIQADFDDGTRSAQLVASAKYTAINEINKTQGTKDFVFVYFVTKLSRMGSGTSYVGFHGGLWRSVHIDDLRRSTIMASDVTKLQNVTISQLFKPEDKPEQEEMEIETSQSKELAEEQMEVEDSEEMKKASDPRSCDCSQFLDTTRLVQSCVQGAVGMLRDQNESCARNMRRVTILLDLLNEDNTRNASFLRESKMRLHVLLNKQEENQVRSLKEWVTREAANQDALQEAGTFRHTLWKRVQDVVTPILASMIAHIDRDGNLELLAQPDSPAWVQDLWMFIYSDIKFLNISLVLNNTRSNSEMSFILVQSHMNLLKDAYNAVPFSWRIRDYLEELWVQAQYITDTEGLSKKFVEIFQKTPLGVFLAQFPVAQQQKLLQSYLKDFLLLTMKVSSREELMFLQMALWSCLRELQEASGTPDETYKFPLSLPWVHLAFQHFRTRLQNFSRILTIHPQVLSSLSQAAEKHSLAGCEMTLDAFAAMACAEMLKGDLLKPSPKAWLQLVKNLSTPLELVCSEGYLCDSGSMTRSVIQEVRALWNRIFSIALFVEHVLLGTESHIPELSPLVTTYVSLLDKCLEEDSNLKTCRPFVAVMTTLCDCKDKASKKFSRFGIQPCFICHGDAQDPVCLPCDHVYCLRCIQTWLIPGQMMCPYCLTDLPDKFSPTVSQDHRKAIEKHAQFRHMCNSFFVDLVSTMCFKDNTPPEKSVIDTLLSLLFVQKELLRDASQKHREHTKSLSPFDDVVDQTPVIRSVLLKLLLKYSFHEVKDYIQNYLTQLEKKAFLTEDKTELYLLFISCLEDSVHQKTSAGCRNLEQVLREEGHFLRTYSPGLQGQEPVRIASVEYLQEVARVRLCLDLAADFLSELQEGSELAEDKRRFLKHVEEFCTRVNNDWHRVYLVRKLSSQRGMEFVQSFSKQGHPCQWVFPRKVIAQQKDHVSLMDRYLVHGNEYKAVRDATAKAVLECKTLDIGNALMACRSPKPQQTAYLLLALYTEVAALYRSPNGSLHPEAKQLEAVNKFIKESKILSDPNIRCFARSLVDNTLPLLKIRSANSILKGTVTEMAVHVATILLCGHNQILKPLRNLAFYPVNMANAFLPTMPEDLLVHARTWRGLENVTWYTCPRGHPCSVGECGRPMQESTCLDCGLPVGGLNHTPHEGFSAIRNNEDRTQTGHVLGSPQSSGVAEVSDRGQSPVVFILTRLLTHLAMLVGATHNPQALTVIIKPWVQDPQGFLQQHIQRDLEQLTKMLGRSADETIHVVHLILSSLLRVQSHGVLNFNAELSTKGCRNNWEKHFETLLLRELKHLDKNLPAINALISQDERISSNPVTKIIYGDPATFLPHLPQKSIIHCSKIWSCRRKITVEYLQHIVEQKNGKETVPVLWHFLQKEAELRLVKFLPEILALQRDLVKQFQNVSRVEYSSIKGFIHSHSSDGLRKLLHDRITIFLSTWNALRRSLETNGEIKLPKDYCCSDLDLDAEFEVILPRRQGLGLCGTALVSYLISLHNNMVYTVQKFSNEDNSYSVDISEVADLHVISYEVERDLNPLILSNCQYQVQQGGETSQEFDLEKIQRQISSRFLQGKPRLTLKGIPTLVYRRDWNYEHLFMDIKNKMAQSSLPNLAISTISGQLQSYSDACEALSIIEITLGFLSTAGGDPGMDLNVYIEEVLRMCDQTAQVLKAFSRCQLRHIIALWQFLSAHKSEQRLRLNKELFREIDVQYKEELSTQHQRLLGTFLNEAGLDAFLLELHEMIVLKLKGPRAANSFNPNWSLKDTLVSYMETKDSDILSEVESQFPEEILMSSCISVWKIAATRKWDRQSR

[3] = target: T1, RNF213 (mouse, full-length); test: NADH-coupled ATPase assay; format: biochemical; settings: 2 mM ATP, equimolar MgCl2 added, pH 7.2, 30 C; AAA3 and AAA4 proposed competent sites; rate only in figure

T1 sequence (E9Q555 whole entry, the tested form may be a part): as the sequence (E9Q555 whole entry R4753K, the tested form may be a part) above, with K4753R counted along it

Q: `Nc1ncnc2c1ncn2[C@@H]1O[C@H](COP(=O)(O)OP(=O)(O)OP(=O)(O)O)[C@@H](O)[C@H]1O` [ATP] was tested. Which cryo-EM structure [1] did it give?
A: The cryo-EM structure was “unambiguously revealed a co-purified ATP molecule that is bound to AAA2”.

Q: What about the “NADH-coupled ATPase assay” value [2] of the same compound?
A: The value was “does not significantly alter the enzymatic properties of RNF213 in vitro”.

Q: What about the “NADH-coupled ATPase assay” value [3] of the same compound?
A: Its value is “ATPase activity of RNF213 is an order of magnitude lower than that of a processive”.
